# Patent US20110151018A1, “METHODS OF INSECT CONTROL” (BRANDEIS UNIVERSITY, priority 2008, published 2011)
# Columns and labels:
# dTRPA1 [1] = target: T1, dTRPA1 (Drosophila melanogaster, UniProt Q7Z020); assay: Agonist-evoked dTRPA1 currents, two-electrode voltage clamping on Xenopus laevis oocytes; format: cell-based; conditions: for activation of wild-type dTRPA1 channel currents: 100 μM, applied 60-80 sec, currents at -60 and +60 mV
# T1 sequence (Q7Z020 1-1197): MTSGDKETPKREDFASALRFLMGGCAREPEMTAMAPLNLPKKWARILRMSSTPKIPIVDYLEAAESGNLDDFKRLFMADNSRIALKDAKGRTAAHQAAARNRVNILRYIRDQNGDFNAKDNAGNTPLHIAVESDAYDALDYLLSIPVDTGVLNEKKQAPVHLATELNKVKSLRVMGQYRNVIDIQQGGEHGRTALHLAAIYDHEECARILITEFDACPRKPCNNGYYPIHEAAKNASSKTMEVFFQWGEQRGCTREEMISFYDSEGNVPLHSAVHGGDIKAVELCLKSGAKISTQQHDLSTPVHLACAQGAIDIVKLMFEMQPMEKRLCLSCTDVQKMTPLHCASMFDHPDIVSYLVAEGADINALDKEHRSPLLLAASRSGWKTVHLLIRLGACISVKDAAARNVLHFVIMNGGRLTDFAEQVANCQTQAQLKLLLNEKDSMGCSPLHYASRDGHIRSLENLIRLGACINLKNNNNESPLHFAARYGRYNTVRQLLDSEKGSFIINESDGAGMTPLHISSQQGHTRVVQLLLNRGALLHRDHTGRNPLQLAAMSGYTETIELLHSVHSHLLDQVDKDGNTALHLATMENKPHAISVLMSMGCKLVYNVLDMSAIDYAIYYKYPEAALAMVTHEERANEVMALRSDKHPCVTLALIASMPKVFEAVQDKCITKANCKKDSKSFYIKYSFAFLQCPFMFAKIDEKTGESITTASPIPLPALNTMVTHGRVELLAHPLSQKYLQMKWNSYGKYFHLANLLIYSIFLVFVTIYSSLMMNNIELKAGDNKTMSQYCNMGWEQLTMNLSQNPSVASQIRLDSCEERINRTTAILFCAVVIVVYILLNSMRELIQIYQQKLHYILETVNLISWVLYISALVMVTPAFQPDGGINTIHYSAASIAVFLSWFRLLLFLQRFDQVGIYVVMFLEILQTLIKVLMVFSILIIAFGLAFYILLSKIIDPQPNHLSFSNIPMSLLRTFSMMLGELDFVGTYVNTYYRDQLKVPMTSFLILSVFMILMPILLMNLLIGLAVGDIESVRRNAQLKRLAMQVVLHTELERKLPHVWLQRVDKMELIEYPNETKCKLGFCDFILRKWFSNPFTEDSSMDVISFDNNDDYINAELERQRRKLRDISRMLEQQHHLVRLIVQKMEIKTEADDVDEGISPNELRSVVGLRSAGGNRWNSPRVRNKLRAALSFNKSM
# Protocol: (§1) Two-electrode voltage clamping on Xenopus laevis oocytes: Agonist-evoked dTRPA1 currents were recorded as previously described (52), with the following modifications. Agonists of interest were added to the oocyte perfusion buffer (96 mM NaCl, 1 mM MgCl2, 4 mM KCl, and 5 mM HEPES, pH 7.6). Voltage was initially held at −60 mV, and each 300-ms voltage ramp (−60 mV to 60 mV) per sec was applied to dTRPA1- or AgTRPA1-expressing oocytes during perfusion of agonist-containing buffer. Typical resting membrane potentials of oocytes used were between −25 and −60 mV.
# D. melanogaster flies [2] = assay: Proboscis extension response (PER) assay, solution contact with labellum; format: in vivo, Drosophila melanogaster
# Excerpt: Proboscis extension response (PER) assay: As reactive electrophiles are commonly encountered as defensive agents present in food sources, we also examined AITC sensing in the context of fly feeding. Flies aged two to seven days were starved on wet Kim wipes overnight, knocked out on ice, and glued (Elmer's glue) by their wings on a glass slide. Flies recovered in a humidified chamber at least for 2 hrs at room temperature prior to assay. At the beginning of PER assay, the fly was satiated with water. […] When the proboscis was extended and maintained the contact for 2-3 sec with the presented food, it was scored as 1. If the contact is only brief or proboscis stuttered on the tastant, 0.5 was given as the score. When the proboscis never made contact within 5 sec, 0 was given. Each fly was offered five times per experiment, and between offerings water was given to satiation. As AITC was always accepted on first offering, frequency of PER was calculated as a fraction obtained from the […] offerings (sum of four scores divided by 4). For leg only PER assays, the procedures are same as above except that the flies tested were not allowed to contact with the offered food with proboscis, with either 12% sucrose or a mixture of 2 mM AITC/12% sucrose was offered ten times.
# flies = assay: Ingestion of AITC-laden food over a 60 minute period; format: in vivo, Drosophila; conditions: well before the end of the 60 minute assay
# dTRPA1-2C = assay: AITC-evoked currents of dTRPA1-2C mutant channel in oocytes; format: cell-based, Drosophila melanogaster; conditions: 0.1 and 0.5 mM AITC normalized to 1.0 mM, -60 mV
# Protocol: as §1
# Substitutions of cysteine/lysine residues in dTrpA1 were made by swapping a region of wild type cDNA sequence including codons of cysteine or lysine with mutated cassettes. A pair of mutually complemetary oligonucleotide primers with a desired mutation were prepared, and each of them was paired with upstream or downstream primers for the first two PCR reactions. The resulting two PCR fragments overlap in the mutant primer-annealing region that contains the replaced codons, and served as template for the second PCR reaction amplified only with the upstream and down stream primers. The upstream and down stream primers were designed to be just outside of specific restriction endonuclease target sites that were used to clone the second PCR products back in the wild type dTrpA1 cDNA background sequence. […]
# agTRPA1 [3] = assay: Agonist-evoked agTRPA1 currents, two-electrode voltage clamping on Xenopus laevis oocytes; format: cell-based, Anopheles gambiae; conditions: 100 μM
# Protocol: as §1
# Drosophila melanogaster = conditions: cited from earlier work
# D. melanogaster flies [4] = assay: Leg only PER assay; format: in vivo, Drosophila melanogaster; conditions: 2 mM AITC/12% sucrose
# Excerpt: Proboscis extension response (PER) assay: As reactive electrophiles are commonly encountered as defensive agents present in food sources, we also examined AITC sensing in the context of fly feeding. Flies aged two to seven days were starved on wet Kim wipes overnight, knocked out on ice, and glued (Elmer's glue) by their wings on a glass slide. Flies recovered in a humidified chamber at least for 2 hrs at room temperature prior to assay. At the beginning of PER assay, the fly was satiated with water. Next, solution containing tastants was presented to the fly as a liquid ball on a pipette tip, touching the forelegs only. When the proboscis was extended and maintained the contact for 2-3 sec with the presented food, it was scored as 1. If the contact is only brief or proboscis stuttered on the tastant, 0.5 was given as the score. When the proboscis never made contact within 5 sec, 0 was given. Each fly was offered five times per experiment, and between offerings water was given to satiation. As AITC was always accepted on first offering, frequency of PER was calculated as a fraction obtained from the […] offerings (sum of four scores divided by 4). […]
# D. melanogaster adults = assay: Vapor avoidance assay (choice between AITC tube and DMSO tube); format: in vivo, Drosophila melanogaster; conditions: dTrpA1 loss-of-function mutants, P<0.0001
# Protocol: Vapor avoidance assay: One to three day-old flies were collected, knocked out by CO2, and kept on a fresh food at least 24 hrs before use. Choice apparatus was as previously described (3). ˜200 mM AITC was prepared daily by diluting 1 part of 99% AITC (Sigma) in 49 parts of DMSO. 1 microliter of diluted AITC was placed on the tip of 16-gauge needle (plugged by bending), inserted in bottom of a capped 14-ml polypropylene tube and allowed to diffuse for 2 min prior to use. 1 microliter of DMSO alone was placed on a needle tip inserted into the other 14-ml tube. During diffusion period, flies were transferred to the apparatus held within the fly elevator. After diffusion period, AITC tube was uncapped and inserted one opening of the choice chamber, other opening contained vehicle only tube. […] AITC and vehicle only sides were alternated to offset any bias caused by possible asymmetric condition. Avoidance index was calculated by subtracting the fraction of flies in AITC tube from fraction in vehicle alone tube.
# [5] = tested on: motor neurons expressing dTRPA1; assay: Larval neuromuscular junction electrophysiology (EJPs in muscle 6); format: cell-based, Drosophila melanogaster
# Excerpt: Larval neuromuscular junction electrophysiology: dTRPA1 was expressed in larval motor neurons using OK371-GAL4, a driver specific for glutamatergic neurons (Aberle et al., 2006) as described (61). In all preparations, the ventral ganglion was dissected away, leaving only motor axons and terminals. Larval muscle 6 (m6) was impaled with a sharp electrode (10-20 MO) containing 3M KCl. Resting membrane potentials were typically between −40 and −50 mV. Saline was perfused over the preparation, then increasing concentrations of cinnemaldehyde applied using a custom built gravity perfusion system. EJP frequency was measured-30 sec after application of each concentration using analysis scripts in Spike 2 (Cambridge Electronic Design, Cambridge, UK).
# dTRPA1 [6] = target: T1, dTRPA1; assay: Warmth-evoked currents in dTRPA1-expressing Xenopus laevis oocytes (two electrode voltage clamp); format: cell-based; conditions: 50 micromolar Ruthenium Red, -60 mV
# Protocol: (§2) Oocyte-positive Xenopus laevis females were obtained from Nasco (Ft. Atkinson, Wis.), and maintained at ˜19° C. with 12 h/12 h dark/light cycles. Ovaries were surgically isolated, and treated with 1.5 mg/ml of collagenase type II (Worthington, Lakewood, N.J.) for 90 min, and individual oocytes were defolliculated with a pair of forceps. cRNA was transcribed by mMessage mMachine T3 kit (Ambion, Austin, Tex.) from each cDNA construct, and 50 nl aliquot per oocyte was injected using an automatic Drummond microinjector. (agTRPA1 sequence deposited as Genbank #108 1610.) Membrane potential was maintained at −60 mV by two electrode voltage clamping (TEVC) during warm-activated current recording. Resistance of pulled glass capillary electrodes filled with 3 M KCl was between 0.5 and 1.5 MΩ. Typical resting membrane potentials of oocytes used for current recording were between −25 and -60 mV. Current was recorded at 2 kHz and filtered to 1 kHz with the output filter of the amplifier (OC-725B, Warner instruments, Hamden, Conn.). […] Each voltage step lasted 100 ms following 10 ms holding at −60 mV, and the recorded current in the last 40 ms was averaged to determine the current amplitude at a given voltage.
# agTRPA1 [7] = assay: Warmth-evoked currents in agTRPA1-expressing Xenopus laevis oocytes (two electrode voltage clamp); format: cell-based, Anopheles gambiae; conditions: 50 micromolar Ruthenium Red, -60 mV
# Protocol: as §2
smiles,measurement,setting,value
"C=CCN=C=S [AITC, allyl isothiocyanate]",activation of wild-type dTRPA1 channel currents,dTRPA1 [1],robustly activated
same,PER upon the first offering,"D. melanogaster flies [2]; 12% sucrose containing 2 mM AITC, labellum",All flies also exhibited a PER
same,PER triggered by the four subsequent offerings,"D. melanogaster flies [2]; control flies, 12% sucrose containing 2 mM AITC, labellum (sucrose alone 95%)",33%
same,PER in response to multiple offerings,"D. melanogaster flies [2]; dTrpA1 mutants, sucrose containing AITC",no reduction in PER
same,incapacitation of flies on exposure,flies,incapacitated all flies
same,AITC sensitivity of dTRPA1-2C compared to wild type dTRPA1,dTRPA1-2C,significantly decreased AITC sensitivity
same,activation of agTRPA1 channel currents,agTRPA1 [3],robust responses
same,toxicity and mutagenicity to the fruit fly,Drosophila melanogaster,toxic and mutagenic
same,effect on PER elicited by contact of 12% sucrose solution with the legs,D. melanogaster flies [4],no detectable effects
same,AITC vapor avoidance compared to control,D. melanogaster adults,significantly reduced AITC avoidance
O=CC=Cc1ccccc1 [cinnamaldehyde],activation of wild-type dTRPA1 channel currents,dTRPA1 [1],robustly activated
same,response of control motor neurons,[5]; genetic controls without dTRPA1,unresponsive
same,activation of motor neurons expressing dTRPA1 (EJPs in target muscles),"[5]; ok371-Gal4 driven dTRPA1, 3rd instar larvae",robustly activated
"N.N.N.N.N.N.N.N.N.N.N.N.N.N.[Cl-].[Cl-].[Cl-].[Cl-].[Cl-].[Cl-].[O-2].[O-2].[Ru+3].[Ru+3].[Ru+4] [Ruthenium Red, ruthenium red]",inhibition of electrophile-evoked dTRPA1 currents,dTRPA1 [1]; 100 μM RR,inhibited
same,inhibition of warmth-activated dTRPA1 currents,dTRPA1 [6],inhibited
same,inhibition of warmth-activated agTRPA1 currents,agTRPA1 [7],inhibited
Cn1c(=O)c2c(ncn2C)n(C)c1=O [caffeine],"inhibition of the PER, dTrpA1 mutants versus controls",D. melanogaster flies [2]; caffeine-mediated,indistinguishable
C=CC=O [acrolein],activation of wild-type dTRPA1 channel currents,dTRPA1 [1],robustly activated
same,toxicity and mutagenicity to the fruit fly,Drosophila melanogaster,toxic and mutagenic
